In publication PMC9025555, “Chiral Recognition R- and RS- of New Antifungal: Complexation/Solubilization/Dissolution Thermodynamics and Permeability Assay” (Pharmaceutics, 2022):
In brackets after ≈: the same amount, converted by molar mass.

Experiments:
[1] = parameters: method as in doi:10.1016/j.molliq.2021.116535; details: cited from earlier work
[2] = Phase solubility study (shake-flask) in buffers with 2-HP-β-CD; details: for order of the solubility: compared with reported FCZ and L-173; for solubility at 3 days: thermodynamic from solid, solubility in pure buffer solution, pure buffer
Method: An excess amount of the substance was placed in the glass screw-capped vials with the solvent. The vials were stirred in an air thermostat for a certain period of time (a period of 3 days was estimated to be enough for reaching the equilibrium between the solid and the solvent). Then, the saturated solutions were kept in a thermostat in mild conditions no less than 12 h and thereafter centrifuged at a fixed temperature (Biofuge pico, Thermo Electron LED GmbH, Langenselbold, Germany) for 10 min at 12,000 rpm. […] The experimental results were reported as an average of at least three replicated experiments. Temperature uncertainty was ±0.1 K. The sensitivity of UV spectroscopic determinations was characterized by the values of the limit of detection (LOD)/limit of quantification (LOQ).

in vitro = in vitro ADME; details: pH 7.4, pH 7.4; CD 0.01087 M; 310.15 K; read-out: Permeability Coefficient (Papp)
Method: Permeability coefficients of RS-186 and R-98 were measured through the PermeaPad barrier (PHABIOC, Germany, Espelkamp, www.permeapad.com, accessed on 20 May 2021) of an effective surface area of 0.785 cm^2 in a vertical type of Franz diffusion cell (PermeGear, Inc., Hellertown, PA, USA) with 7 mL volume. PermeaPad is a biomimetic membrane proposed by di Cagno and Bauer-Brandl for the fast screening of the permeability of the marketed drugs and drug-like compounds. In brief, the barrier was mounted between the donor and receptor chambers. The donor chamber was filled with a stock solution of the investigated substance in buffer solution at pH 2.0 or pH 7.4 and was stirred vigorously during the permeability experiment. The receptor compartment contained 1 mL of the respective fresh buffer. The system was thermostated at 310.15 ± 0.1 K. A probe of 0.5 mL was withdrawn every 30 min from the receptor chamber and replaced with an equal amount of the respective fresh buffer. The permeation process followed the reverse dialysis. The withdrawn samples were analyzed in 96-well UV black plate (Costar) via spectrophotometer (Spectramax 190; Molecular devices, Molecular Devices Corporation, California, CA, USA) at the appropriate wavelength. The permeation profiles were plotted as the amount of the permeated drug over the surface area ( dQ/A ) versus the time ( t ). The flux ( J ) was calculated as a slope of permeation profiles according to the equation:(6) J=dQ/A×dt
The apparent permeability coefficient ( Papp ) was calculated by normalizing the flux measured over the concentration of the drug in the donor compartment ( C0 ), as described by the equation:(7) Papp=J/Co
Each permeability experiment was repeated at least 3 times and the average value of Papp was determined.

[3] = cited from earlier work

## OC(Cn1cncn1)(Cn1cncn1)c1ccc(F)cc1F [FCZ, fluconazole]
[1]
  Papp (PermeaPad): 19 ×10⁻⁶ cm/s
[2]; pH 2.0
  order of the solubility: (FCZ) > (RS-186 ≥ R-98) > (L-173)
[2]; pH 7.4
  order of the solubility: (FCZ) > (R-98 ≥ RS-186) >> (L-173)

## O=C(CN1C(=O)S/C(=C\c2ccc(Cl)cc2)C1=O)N1CCN(CC(O)(Cn2cncn2)c2ccc(F)cc2F)CC1 [L-173, (5Z)-5-[(4-chlorophenyl)methylidene]-3-(2-{4-[2-(2,4-difluorophenyl)-2-hydroxy-3-(1H-1,2,4-triazol-1-yl)propyl]piperazin-1-yl}-2-oxoethyl)-1,3-thiazolidine-2,4-dione, reference compound]
[2]; pH 2.0
  order of the solubility: (FCZ) > (RS-186 ≥ R-98) > (L-173)
[2]; pH 7.4
  order of the solubility: (FCZ) > (R-98 ≥ RS-186) >> (L-173)

## O=C1S/C(=C\c2ccc(Cl)cc2)C(=O)N1CC(O)CN1CCN(CC(O)(Cn2cncn2)c2ccc(F)cc2F)CC1 (stereo not shown) [R-98, (Z)-5-(4-chlorobenzylidene)-3-(3-(4-(2-(2,4-difluorophenyl)-2-hydroxy-3-(1H-1,2,4-triazol-1-yl)propyl)piperazin-1-yl)-2-hydroxypropyl)thiazolidine-2,4-dione]
In vitro
  Papp: 1.19 ×10⁻⁶ cm/s
[2]; pH 2, aqueous buffer, pH 2.0
  solubility at 3 days: 620 µM (≈ 384 µg/mL)
[2]; pH 7.4, aqueous buffer, pH 7.4
  solubility at 3 days: 18 µM (≈ 11.1 µg/mL)

## CC(C)Cc1ccc(C(C)C(=O)O)cc1 (stereo not shown) [ibuprofen]
[3]; pH 1.5
  greater solubility of enantiomer against the racemate: twice

## CC(C)NCC(O)COc1cccc2ccccc12.Cl (stereo not shown) [propranolol HCl]
[3]
  greater solubility of racemic compound as compared to enantiomer: 3.7 fold
